Data reported in paper PMC4290489, “Identification of multiple salicylic acid-binding proteins using two high throughput screens” (Frontiers in Plant Science, 2015).

Experiments:
Format in all cases: binding
HPR2 = biological target: T1, HPR2 (Arabidopsis thaliana, UniProt Q9CA90); test: SPR competition on 3AESA chip; competition of 4AzSA photo-crosslinking; conditions: 1-5 mM SA, HBS-EP pH 7.4 (SPR); competes with 3AESA and 4AzSA
T1 construct: N-terminal His6 (pET28a), from E. coli
T1 sequence (Q9CA90 1-313): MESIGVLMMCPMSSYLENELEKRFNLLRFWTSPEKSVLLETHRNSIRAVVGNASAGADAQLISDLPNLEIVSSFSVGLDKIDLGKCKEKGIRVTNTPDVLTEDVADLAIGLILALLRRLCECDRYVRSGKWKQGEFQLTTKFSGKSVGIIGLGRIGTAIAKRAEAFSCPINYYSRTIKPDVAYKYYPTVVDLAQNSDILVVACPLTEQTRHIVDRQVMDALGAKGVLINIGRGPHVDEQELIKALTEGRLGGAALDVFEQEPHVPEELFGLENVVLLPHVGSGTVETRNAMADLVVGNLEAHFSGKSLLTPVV

SHM4 = biological target: T2, SHM4 (Arabidopsis thaliana, UniProt O23254); test: as above; conditions: 1-5 mM SA, HBS-EP pH 7.4 (SPR); competes with 3AESA and 4AzSA
T2 construct: N-terminal His6 (pET28a), from E. coli
T2 sequence (O23254 1-471): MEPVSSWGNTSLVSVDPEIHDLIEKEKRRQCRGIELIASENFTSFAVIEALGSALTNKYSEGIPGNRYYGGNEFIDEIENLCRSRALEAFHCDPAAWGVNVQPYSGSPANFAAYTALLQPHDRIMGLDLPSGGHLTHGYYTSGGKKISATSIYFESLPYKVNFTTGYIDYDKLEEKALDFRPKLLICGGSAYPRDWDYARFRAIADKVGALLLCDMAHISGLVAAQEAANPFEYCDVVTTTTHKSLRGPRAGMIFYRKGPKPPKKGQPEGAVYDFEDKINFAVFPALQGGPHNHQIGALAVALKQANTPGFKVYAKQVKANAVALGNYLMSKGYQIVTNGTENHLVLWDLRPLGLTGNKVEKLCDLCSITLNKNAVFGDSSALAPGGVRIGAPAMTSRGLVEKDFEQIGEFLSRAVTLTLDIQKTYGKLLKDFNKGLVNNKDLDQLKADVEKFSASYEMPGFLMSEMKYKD

UGE2 = biological target: T3, UGE2 (Arabidopsis thaliana, UniProt Q9T0A7); test: as above; conditions: 1-5 mM SA, HBS-EP pH 7.4 (SPR); competes with 3AESA and 4AzSA
T3 construct: N-terminal His6 (pET28a), from E. coli
T3 sequence (Q9T0A7 1-350): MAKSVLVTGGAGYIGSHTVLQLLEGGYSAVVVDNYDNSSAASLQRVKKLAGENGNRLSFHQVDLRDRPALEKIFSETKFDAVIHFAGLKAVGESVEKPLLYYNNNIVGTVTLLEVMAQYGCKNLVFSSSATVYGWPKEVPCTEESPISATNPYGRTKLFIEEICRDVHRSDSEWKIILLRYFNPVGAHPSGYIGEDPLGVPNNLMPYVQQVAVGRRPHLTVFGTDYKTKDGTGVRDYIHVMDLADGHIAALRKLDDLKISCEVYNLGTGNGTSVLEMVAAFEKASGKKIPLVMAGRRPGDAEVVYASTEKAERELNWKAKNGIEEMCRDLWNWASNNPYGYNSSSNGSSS

NPR1 = biological target: T4, NPR1 (Arabidopsis thaliana, UniProt P93002); test: UV photo-crosslinking, anti-SA immunoblot; conditions: 50 uM 4AzSA, PBS, on ice, 254 nm UV; covalent; competed by SA
T4 construct: N-terminal His6-MBP fusion (pET-MALHT), from E. coli, Ni-NTA and gel filtration
T4 sequence (P93002 1-593): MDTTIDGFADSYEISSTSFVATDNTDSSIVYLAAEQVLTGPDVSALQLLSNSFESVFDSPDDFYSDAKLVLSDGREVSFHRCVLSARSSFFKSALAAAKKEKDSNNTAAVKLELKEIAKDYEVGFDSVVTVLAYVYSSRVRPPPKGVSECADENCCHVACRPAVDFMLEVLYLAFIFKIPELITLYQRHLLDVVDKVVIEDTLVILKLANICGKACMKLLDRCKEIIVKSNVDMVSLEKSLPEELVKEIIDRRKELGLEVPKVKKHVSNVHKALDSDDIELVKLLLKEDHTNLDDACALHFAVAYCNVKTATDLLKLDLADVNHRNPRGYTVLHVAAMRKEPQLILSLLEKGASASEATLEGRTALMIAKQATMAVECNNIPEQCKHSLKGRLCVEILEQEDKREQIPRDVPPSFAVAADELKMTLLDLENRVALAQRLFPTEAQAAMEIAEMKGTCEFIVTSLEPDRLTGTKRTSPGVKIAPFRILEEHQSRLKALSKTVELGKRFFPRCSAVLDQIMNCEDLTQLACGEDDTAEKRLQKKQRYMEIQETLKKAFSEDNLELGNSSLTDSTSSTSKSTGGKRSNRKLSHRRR

| SMILES | SPR competition on 3AESA chip; competition of 4AzSA photo-crosslinking (HPR2) | SPR competition on 3AESA chip; competition of 4AzSA photo-crosslinking (SHM4) | SPR competition on 3AESA chip; competition of 4AzSA photo-crosslinking (UGE2) | UV photo-crosslinking, anti-SA immunoblot (NPR1) |
| --- | --- | --- | --- | --- |
| O=C(O)c1ccccc1O [SA] | bound 3AESA and crosslinked to 4AzSA in an SA-inhibitable manner, indicating that they are SABPs | SA competes with 3AESA and 4AzSA for binding by TRX-m1, TPPII, SHM4, and LOX2 | bound 3AESA and crosslinked to 4AzSA in an SA-inhibitable manner, indicating that they are SABPs |  |
| [N-]=[N+]=Nc1ccc(C(=O)O)c(O)c1 [4AzSA] |  |  |  | NPR1 bound and was crosslinked to 4AzSA; this crosslinking was suppressed by increasing levels of SA |
